{"source": "paper PMC5317004", "about": "(Scientific Reports, 2017)", "key": {"[1]": {"details": "LUVs 6 mM, 5 minutes incubation plus 20-minutes ultracentrifugation; depending on the LUVs' lipid composition; cited from earlier work"}, "chimeric α7-GluClβR": {"system": "chimeric α7-GluClβR", "test": "Voltage ramps during current decline: reversal potential, chloride chord conductance, IVM rate constants", "type": "cell-based, chick nAChR α7 / C. elegans GluClβ", "experimental": "Figure 6 Chloride conductance of α7-GluClβRs. Representative whole-cell current traces elicited by: (A) ACh alone and (B) ACh to which IVM was added after the current peak. Recordings were performed at −60 mV with intervening 200-ms-long voltage ramps applied from −80 to +20 mV during the current decline, giving output currents r1–r13. *, time lapse of ~1 sec between protocols’ exchange (see “Supplementary Materials and Methods”). Traces in A and B were recorded from the same cell, with an intermediate 74-sec-long wash. Right panels show superimposition of the output currents. (C,D) Current-voltage (I/V) relations extracted from A and B, respectively (r13 in D overlaps the x-axis). (E) Reversal potentials (Erev) extracted from the voltage-ramps’ output currents of A (black squares) and B (red circles), plotted as a function of time (0 sec, time of r1). (F) Decay of chloride chord conductance plotted as a function of time, in the absence or presence of IVM. The conductance points were calculated at −65 mV based on the voltage-ramps’ output currents shown in A and B. Exponential fits (Eq. 6) are shown. (G,H) Normalized (Norm.) conductance (G), current (I), intracellular Cl^− ion concentration ([Cl]i), and electrochemical driving force (VDF) plotted as a function of time for ACh-dependent responses in the absence (panel G) or presence (panel H) of IVM (relating to responses in A and B, respectively). (I,J) Decay of chloride chord conductance plotted as a function of time in representative cells exposed to different IVM concentrations. (K,L,M) Averaged normalized chloride chord conductance (Norm. G) plotted as a function of time under different IVM concentrations. In each cell, each conductance was normalized to the conductance extracted from r1 of the ACh-alone application. N = 7, 11 and 8 in K, L and M, respectively. Error bars are SEM. (N) 1/τIVM plotted as a function of IVM concentration, using equation 7 for curve fitting by linear regression (r^2 = 0.999). 26 cells were analyzed to obtain the averaged 1/τIVM points. Error bars are SEM.\nWe then took advantage of the capability of IVM to accelerate the current decline in order to determine the binding affinity of IVM. To this end, the voltage ramps’ output currents obtained in the presence of IVM were subtracted from their counterpart currents obtained in the absence of IVM. Then, we calculated the chloride conductance based on the resulting subtracted currents at each ramp. This chloride conductance is hereafter termed GIVM. In each experimented cell, we fitted exponential curves to the first 5-6 conductance points, where there was no substantial difference between the ∆Erev values in the absence or presence of IVM. These exponential fits for the GIVM points were obtained at various IVM concentrations, and they actually provide the time constant of the IVM-dependent Cl^−-conductance decay (τIVM).\nChord conductance (G) was calculated by using equation 5 as follows: […]\nThe relationship between the conductance values and time was plotted for each cell, and the time constant of conductance decay was determined by fitting an exponential curve to the data points using equation 6 as follows: […]\nTo calculate the IVM association (kf) and dissociation (kb) rate constants, a curve was fitted to the 1/τIVM values by a linear regression using equation 7 as follows: where τIVM is the time constant of the IVM-dependent Cl^−-conductance decay, and [IVM] is the concentration of IVM. […]"}}, "note": "Several values for one entry are separate records, joined by “and”; a condition that tells them apart may be missing. Equal entries are not always repeated.", "data": [{"compound": "CC[C@H](C)[C@H]1O[C@]2(CC[C@@H]1C)C[C@@H]1C[C@@H](C/C=C(\\C)[C@@H](O[C@H]3C[C@H](OC)[C@@H](O[C@H]4C[C@H](OC)[C@@H](O)[C@H](C)O4)[C@H](C)O3)[C@@H](C)/C=C/C=C3\\CO[C@@H]4[C@H](O)C(C)=C[C@@H](C(=O)O1)[C@]34O)O2", "note": "[IVM, Ivermectin]", "values": [{"measurement": "depletion of IVM from the aqueous solution", "setting": "[1]", "value": "50% and 70%"}, {"measurement": "IVM-dependent decrease in the chloride conductance", "setting": "chimeric α7-GluClβR; 0.5 μM IVM, 740 milliseconds after application, 30 μM ACh", "value": "20 ± 2", "unit": "%"}, {"measurement": "leftward shift in reversal potential (∆Erev)", "setting": "chimeric α7-GluClβR; 30 μM ACh plus 4 μM IVM added after the peak, representative cell", "value": 11, "unit": "mV"}, {"measurement": "Kd", "setting": "chimeric α7-GluClβR; IVM applied after activation by ACh, read-out: Kd (kb/kf) for IVM binding to activated receptor", "value": 1400, "unit": "nM"}, {"measurement": "Kd (after activation) relative to IC50/Ki (prior to activation)", "setting": "chimeric α7-GluClβR; Kd […] vs 156 nM", "value": "nine times higher"}, {"measurement": "IVM association rate constant (k forward, kf)", "setting": "chimeric α7-GluClβR; slope of 1/τIVM vs IVM concentration, 30 μM ACh, 26 cells", "value": 290800, "unit": "M^−1⋅s^−1"}]}]}
